Test results: publication PMC5318275 (Chemical research in toxicology, 2017)
Where two headings read alike, the source gives them in different places.

Columns and labels:
[1] = biological target: hMT1; details: read-out: Ki hMT1; competition for 2-[125I]-iodomelatonin (300 pM); cited from earlier work
[2] = biological target: hMT2; details: read-out: Ki hMT2; competition for 2-[125I]-iodomelatonin (300 pM); cited from earlier work
[3] = biological target: T1, hMT2 melatonin receptor (Homo sapiens, UniProt P49286); test: biochemical; assay type: binding; details: for fold higher affinity for hMT2 than for hMT1: competition with 2-[125I]-iodomelatonin binding; for ratio MT1/MT2 (KiMT1/KiMT2): fold difference in affinity between hMT1 and hMT2
T1 sequence (P49286 1-362): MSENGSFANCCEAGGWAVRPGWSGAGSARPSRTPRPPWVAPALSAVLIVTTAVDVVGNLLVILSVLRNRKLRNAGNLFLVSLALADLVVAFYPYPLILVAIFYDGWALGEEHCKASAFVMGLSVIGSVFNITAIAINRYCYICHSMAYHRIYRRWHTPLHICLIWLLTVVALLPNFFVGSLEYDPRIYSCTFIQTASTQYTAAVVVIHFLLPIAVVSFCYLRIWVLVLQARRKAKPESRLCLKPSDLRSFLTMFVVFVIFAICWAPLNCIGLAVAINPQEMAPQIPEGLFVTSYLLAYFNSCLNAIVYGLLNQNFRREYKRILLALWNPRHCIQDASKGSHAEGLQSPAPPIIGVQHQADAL

[4] = tested on: serotonin levels; details: single oral dose 60 mg/kg; cited from earlier work
[5] = biological target: T1, hMT2 melatonin receptor; test: biochemical; assay type: binding; details: for ratio KiGTP/KiControl, human MT2: 100 μM GTP vs control; for ratio KiGTP/KiControl, human MT2 / Ki: mean ± SEM; for apparent intrinsic efficacy at hMT2 from GTP shift: classified by KiGTP/KiControl: agonists >1, antagonists =1, inverse agonists <1; for Ki: human MT2 Ki value, 25 °C, 1 h
[6] = biological target: T2, hMT1 melatonin receptor (Homo sapiens, UniProt P48039); test: biochemical; assay type: binding
T2 sequence (P48039 whole entry): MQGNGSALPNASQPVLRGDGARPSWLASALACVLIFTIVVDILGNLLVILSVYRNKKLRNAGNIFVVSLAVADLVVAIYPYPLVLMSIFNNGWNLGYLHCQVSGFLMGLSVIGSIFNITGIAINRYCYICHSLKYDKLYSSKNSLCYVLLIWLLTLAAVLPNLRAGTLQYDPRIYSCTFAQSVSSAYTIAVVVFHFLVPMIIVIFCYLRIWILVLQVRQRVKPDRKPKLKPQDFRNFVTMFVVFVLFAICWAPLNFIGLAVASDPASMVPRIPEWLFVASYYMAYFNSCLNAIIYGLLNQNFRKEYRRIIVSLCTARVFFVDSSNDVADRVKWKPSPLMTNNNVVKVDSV

[7] = biological target: T2, hMT1 melatonin receptor; test: biochemical; assay type: binding; details: for ratio KiGTP/KiControl, human MT1: 100 μM GTP vs control; for ratio KiGTP/KiControl, human MT1 / Ki: mean ± SEM; for apparent intrinsic efficacy at hMT1 from GTP shift: classified by KiGTP/KiControl: agonists >1, antagonists =1, inverse agonists <1; for Ki: human MT1 Ki value, 25 °C, 1 h

Row | SMILES | Ki [1] [nM] | Ki [2] [nM] | Ki [3] [nM] | fold higher affinity for hMT2 than for hMT1 [3] [fold] | ratio MT1/MT2 (KiMT1/KiMT2) [3] | levels of serotonin [4] | ratio KiGTP/KiControl, human MT2 [5] | apparent intrinsic efficacy at hMT2 from GTP shift [5] | Ki ([5]; GTP, presence of 100 μM GTP) [nM] | Ki ([5]; control, absence of GTP) [nM] | Ki ([6]; affinity at hMT1, text of discussion, equals the Table 2 control value) [nM] | ratio KiGTP/KiControl, human MT1 [7] | apparent intrinsic efficacy at hMT1 from GTP shift [7] | Ki ([7]; GTP, presence of 100 μM GTP) [nM] | Ki ([7]; control, absence of GTP) [nM] | Ki [6] [nM]
1 | CCC(=O)NC1Cc2ccccc2C(c2ccccc2)C1 (centres unmarked) [4P-PDOT] | 658 | 0.41 |  |  |  |  |  |  |  |  |  |  |  |  |  | 
2 | CNC(=O)Oc1cccc2ccccc12 [carbaryl, 1-naphthyl methylcarbamate] |  |  | 70 ± 10 | 33 | 32.4 | increased | 4.82 ± 0.82 | agonist | 310 ± 30 | 70 ± 5 | 2330 | 0.65 ± 0.16 | antagonist/inverse agonist | 1210 ± 110 | 2330 ± 530 | 
3 | CNC(=O)Oc1cccc2c1OC(C)(C)C2 [carbofuran, 2,3-dihydro-2,2-dimethyl-7-benzofuranyl methylcarbamate] |  |  | 1680 ± 240 | 35 | 34.8 |  | 10.8 ± 4.2 | agonist efficacy | 12100 ± 2630 | 1670 ± 390 |  | 0.59 ± 0.24 | antagonist/inverse agonist | 29900 ± 8600 | 63500 ± 12500 | 58500 ± 8250
4 | CC(=O)NCCc1c(Cc2ccccc2)[nH]c2ccccc12 [luzindole] | 179 | 7.3 |  |  |  |  |  |  |  |  |  |  |  |  |  | 
